Data as given in PubChem BioAssay (NCI).
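GI50 marks 50% less growth. TGI: total growth inhibition.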

Experiments:
Assay in all cases: DTP human tumour cell line panel, 384-well format
[1] = tested on: 786-0 renal
[2] = tested on: A498 renal
[3] = tested on: A549 NSCLC
[4] = tested on: ACHN renal
[5] = tested on: BT-549 breast
[6] = tested on: CAKI-1 renal
[7] = tested on: CCRF-CEM leukemia
[8] = tested on: DU-145 prostate
[9] = tested on: EKVX NSCLC
[10] = tested on: HCC-2998 colon
[11] = tested on: HCT-116 colon
[12] = tested on: HL-60(TB) leukemia
[13] = tested on: HOP-62 NSCLC
[14] = tested on: HOP-92 NSCLC
[15] = tested on: HS 578T breast
[16] = tested on: IGROV1 ovarian
[17] = tested on: LOX IMVI melanoma
[18] = tested on: M14 melanoma
[19] = tested on: MALME-3M melanoma
[20] = tested on: MCF7 breast
[21] = tested on: MDA-MB-231 breast
[22] = tested on: MDA-MB-435 melanoma
[23] = tested on: NCI-H226 lung
[24] = tested on: NCI-H23 lung
[25] = tested on: NCI-H322M lung
[26] = tested on: NCI-H460 NSCLC
[27] = tested on: NCI-H522 lung
[28] = tested on: NCI/ADR-RES ovarian
[29] = tested on: OVCAR-4 ovarian
[30] = tested on: OVCAR-5 ovarian
[31] = tested on: OVCAR-8 ovarian
[32] = tested on: PC-3 prostate
[33] = tested on: RXF 393 renal
[34] = tested on: SF-268 CNS
[35] = tested on: SF-295 CNS
[36] = tested on: SF-539 CNS
[37] = tested on: SK-MEL-2 melanoma
[38] = tested on: SK-OV-3 ovarian
[39] = tested on: SNB-19 CNS
[40] = tested on: SNB-75 CNS
[41] = tested on: SR leukemia
[42] = tested on: SW-620 colon
[43] = tested on: T-47D breast
[44] = tested on: TK-10 renal
[45] = tested on: U251 glioblastoma
[46] = tested on: UACC-257 melanoma
[47] = tested on: UO-31 renal

C[C@@H](C(=O)Nc1ccc(Cl)cc1)C1CCC(c2ccnc3ccc(F)cc23)CC1 (some centres undefined) showed a GI50 [1] of 10.8 µM, a TGI [1] of 27 µM and a GI50 [2] of 5.31 µM. It also gave a TGI [2] of 21.1 µM, a GI50 [3] of 6.9 µM and a TGI [3] of 66.5 µM. The GI50 [4] was 9.63 µM, the TGI [4] was 41.4 µM and the GI50 [5] was 7.14 µM. It also gave a TGI [5] of 20.6 µM, a GI50 [6] of 19.2 µM and a TGI [6] of 54.7 µM. For the same compound, the GI50 [7] was 2.64 µM, the TGI [7] was 7.41 µM and the GI50 [8] was 8.74 µM. For the same compound, the TGI [8] was 33.2 µM, the GI50 [9] was 4.09 µM and the TGI [9] was 18.7 µM. For the same compound, the GI50 [10] was 4.23 µM, the TGI [10] was 15.9 µM and the GI50 [11] was 6.31 µM. For the same compound, the TGI [11] was 20.4 µM, the GI50 [12] was 1.35 µM and the TGI [12] was 2.9 µM. The GI50 [13] was 12.8 µM, the TGI [13] was 29.5 µM and the GI50 [14] was 8.04 µM. The TGI [14] was 29.4 µM, the GI50 [15] was 12.7 µM and the TGI [15] was 27.4 µM. For the same compound, the GI50 [16] was 8.55 µM, the TGI [16] was greater than 47.7 µM and the GI50 [17] was 8.67 µM. The TGI [17] was 21.2 µM, the GI50 [18] was 13 µM and the TGI [18] was 40.8 µM. The GI50 [19] was 15.3 µM, the TGI [19] was 37.5 µM and the GI50 [20] was 7.97 µM. For the same compound, the TGI [20] was 25.7 µM, the GI50 [21] was 13.3 µM and the TGI [21] was 65.1 µM. The GI50 [22] was 16.9 µM, the TGI [22] was 36.7 µM and the GI50 [23] was 12.2 µM. It also gave a TGI [23] of 28 µM, a GI50 [24] of 3.76 µM and a TGI [24] of 16 µM. It also gave a GI50 [25] of 17.7 µM, a TGI [25] of 78.2 µM and a GI50 [26] of 2.85 µM. It also gave a TGI [26] of 8.81 µM, a GI50 [27] of 3.24 µM and a TGI [27] of 15.9 µM. The GI50 [28] was 5.62 µM, the TGI [28] was 22 µM and the GI50 [29] was 13.9 µM. It also gave a TGI [29] of 50.2 µM, a GI50 [30] of 13 µM and a TGI [30] of 35.3 µM. The GI50 [31] was 10.4 µM, the TGI [31] was 25.8 µM and the GI50 [32] was 5.72 µM. The TGI [32] was 19 µM, the GI50 [33] was 6.04 µM and the TGI [33] was 20.9 µM. It also gave a GI50 [34] of 6.42 µM, a TGI [34] of 22.7 µM and a GI50 [35] of 10 µM. For the same compound, the TGI [35] was 31.1 µM, the GI50 [36] was 14.2 µM and the TGI [36] was 27.5 µM. For the same compound, the GI50 [37] was 3.07 µM, the TGI [37] was 10.2 µM and the GI50 [38] was 16.3 µM. It also gave a TGI [38] of 42.7 µM, a GI50 [39] of 17.5 µM and a TGI [39] of 52.8 µM. For the same compound, the GI50 [40] was 14.7 µM, the TGI [40] was 37.9 µM and the GI50 [41] was 0.584 µM. It also gave a TGI [41] of 1.46 µM, a GI50 [42] of 8.3 µM and a TGI [42] of 22.6 µM. It also gave a GI50 [43] of 4.42 µM, a TGI [43] of 25.2 µM and a GI50 [44] of 11.3 µM. It also gave a TGI [44] of 86.2 µM, a GI50 [45] of 9.96 µM and a TGI [45] of 26.2 µM. It also gave a GI50 [46] of 13.7 µM, a TGI [46] of 31.4 µM and a GI50 [47] of 15.8 µM. The TGI [47] was 83.2 µM.
